Values joined by “and” are separate entries in the source; they are usually repeats but may differ in a detail not shown here. Equal entries are not always repeated.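 Exposure lasted 48 hours, with cells grown in 96-well plates and compounds tested at five concentrations. Here, GI50 denotes the concentration required for 50% inhibition of growth. At the TGI there is no net growth.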
Tests used:
Test in all cases: DTP human tumour cell line panel, 48 h
KM20L2 colon = system: KM20L2 colon
SF-539 CNS = system: SF-539 CNS
UACC-257 melanoma = system: UACC-257 melanoma
COLO 205 colon = system: COLO 205 colon
HOP-62 NSCLC = system: HOP-62 NSCLC
SK-MEL-28 melanoma = system: SK-MEL-28 melanoma
M19-MEL melanoma = system: M19-MEL melanoma
OVCAR-5 ovarian = system: OVCAR-5 ovarian
MCF7 breast = system: MCF7 breast
DU-145 prostate = system: DU-145 prostate

SMILES	TGI (KM20L2 colon)	TGI (SF-539 CNS)	TGI (UACC-257 melanoma)	TGI (COLO 205 colon)	TGI (HOP-62 NSCLC)	TGI (SK-MEL-28 melanoma)	TGI (M19-MEL melanoma)	TGI (OVCAR-5 ovarian)	GI50 (HOP-62 NSCLC)	GI50 (SK-MEL-28 melanoma)	TGI (MCF7 breast)	TGI (DU-145 prostate)	GI50 (SF-539 CNS)	GI50 (MCF7 breast)	GI50 (OVCAR-5 ovarian)	GI50 (UACC-257 melanoma)	GI50 (COLO 205 colon)	GI50 (DU-145 prostate)
COc1ccc2c(c1O)C(=O)C(CCC(=O)O)CC2 (configuration not stated)	> 100 µM	> 100 µM	> 100 µM	> 100 µM	> 100 µM	> 100 µM	> 100 µM	–	–	–	–	–	–	–	–	–	–	–
Nc1nc(Cl)cc(NCCCCCNc2cc(Cl)nc(N)n2)n1	> 100 µM	> 100 µM	> 100 µM	> 100 µM	> 100 µM	> 100 µM	–	> 100 µM	–	–	–	–	–	–	–	–	–	–
CCCCCCCCCCCCCCCCOCC(CN(C)CCN(C)C)OCCCCCCCCCCCCCCCC (configuration not stated)	> 100 µM	–	> 100 µM	> 100 µM	> 100 µM	> 100 µM	> 100 µM	> 100 µM	–	–	–	–	–	–	–	–	–	–
CC(=O)NC(CCCCN(Cc1ccccc1)C(=O)NCCCl)C(=O)NCc1ccccc1 (configuration not stated)	> 100 µM	> 100 µM	> 100 µM	> 100 µM	> 100 µM	> 100 µM	–	–	–	–	–	–	–	–	–	–	–	–
COc1cc(Br)c(CC2(C#N)c3ccccc3C3C(N2C(=O)c2ccccc2)C3(Cl)Cl)cc1OC (configuration not stated)	> 65.5 µM	> 65.5 µM	> 65.5 µM	> 65.5 µM	–	> 65.5 µM	–	> 65.5 µM	–	–	–	–	–	–	–	–	–	–
CC(/C=C/C(=O)c1sc(-n2nc(-c3ccccc3)cc2-c2ccccc2)nc1C)=C\c1ccccc1	> 100 µM	> 100 µM	> 100 µM	–	> 100 µM	> 100 µM	> 100 µM	–	> 100 µM	> 100 µM	–	–	–	–	–	–	–	–
CC(=O)[O-].CC(=O)[O-].O=C(N/N=C/c1cc(Cl)cc(Cl)c1O)c1ccncc1.[Ni+2]	> 100 µM	> 100 µM	96.6 µM	> 100 µM	> 100 µM	> 100 µM	–	> 100 µM	–	–	–	–	–	–	–	–	–	–
C[N+](C)(C)CC(=O)N/N=C(\CCC(=O)NCCc1ccccc1)CC(=O)c1ccccc1	> 100 µM	> 100 µM	> 100 µM	> 100 µM	> 100 µM	–	> 100 µM	> 100 µM	–	–	–	–	–	–	–	–	–	–
CC1=C(C(=O)Nc2ccccc2)C(c2ccc([N+](=O)[O-])cc2)C(C(=O)Nc2ccccc2)=C(C)N1	35.3 µM	44.9 µM	53.8 µM	–	> 100 µM	88.5 µM	32.1 µM	> 100 µM	–	–	–	–	–	–	–	–	–	–
O=C(NCCO)c1cc2c(cn1)[nH]c1ccccc12	> 100 µM	> 100 µM	> 100 µM	> 100 µM	40.1 µM	> 100 µM	–	> 100 µM	–	–	–	–	–	–	–	–	–	–
NC(=O)/C(=C\c1ccncc1)c1cccc2ccccc12	–	> 100 µM	8.49 µM	> 100 µM	> 100 µM	> 100 µM	–	> 100 µM	–	–	> 100 µM	> 100 µM	–	–	–	–	–	–
Fc1ccc(-c2nn3c(CNc4ccccc4)nnc3s2)cc1	–	> 100 µM	> 100 µM	> 100 µM	> 100 µM	> 100 µM	–	> 100 µM	33.8 µM	42.2 µM	> 100 µM	> 100 µM	33.6 µM	60.2 µM	30.2 µM	36.2 µM	11.2 µM	56.6 µM
CO/[N+]([O-])=C\C(=O)N/C=C/C(=O)O	–	> 100 µM	> 100 µM	> 100 µM	> 100 µM	> 100 µM	–	> 100 µM	–	–	> 100 µM	> 100 µM	–	–	–	–	–	–
CN1CCC(CNc2ccc3ncc(-c4cccc(OC(F)(F)F)c4)n3n2)CC1	–	3.47 µM and 3.11 µM	3.05 µM and 2.8 µM	3.07 µM and 3.08 µM	4.25 µM and > 10 µM	2.99 µM and 3.14 µM	–	8.32 µM and > 10 µM	1.84 µM and 3.44 µM	1.55 µM and 1.61 µM	3.25 µM and 5.46 µM	13.4 µM and > 10 µM	1.68 µM and 1.51 µM	1.61 µM and 1.81 µM	2.68 µM and 2.95 µM	1.51 µM and 1.44 µM	1.59 µM and 1.47 µM	3.35 µM and 3.6 µM
C[C@@H](N)C1CCC(C(=O)Nc2ccncc2)CC1 (some centres not stated)	–	> 100 µM	> 100 µM	> 100 µM	> 100 µM	> 100 µM	–	> 100 µM	> 100 µM	> 100 µM	> 100 µM	> 100 µM	> 100 µM	> 100 µM	> 100 µM	> 100 µM	> 100 µM	> 100 µM
Cc1ccc(S(=O)(=O)Oc2ccc([N+](=O)[O-])cc2[N+](=O)[O-])cc1	–	18.2 µM	12.2 µM	18.6 µM	30.5 µM	26.4 µM	–	26.6 µM	13.6 µM	13 µM	23.2 µM	23.5 µM	4.54 µM	4.13 µM	8.01 µM	2.77 µM	4.51 µM	11.4 µM
CCCOc1ccc(-c2nc(-c3ccc(N=Cc4ccc(N(CCOS(C)(=O)=O)CCOS(C)(=O)=O)cc4C)cc3)cs2)cc1	–	48.8 µM	> 100 µM	14.9 µM	43.7 µM	> 100 µM	–	> 71.7 µM	–	–	> 100 µM	18.1 µM	–	–	–	–	–	–

Source: PubChem BioAssay (NCI)
